Measured values: article PMC6718442, “11β-Hydroxysteroid dehydrogenases control access of 7β,27-dihydroxycholesterol to retinoid-related orphan receptor γ” (Journal of Lipid Research, 2019)
“And” between values parts separate entries of the source, which are not always exact repeats. Equal values may be shown once. Read-outs that look alike come from different tables or passages of the source.

Legend:
human 11β-HSD1 [1] = target: T1, human 11β-HSD1 (Homo sapiens, UniProt P28845); assay: 11β-HSD1-dependent metabolism of 7-oxygenated 27OHCs in intact HEK-293 cells expressing 11β-HSD1 and H6PDH; assay type: cell-based; conditions: for Metabolism by 11β-HSD1 in intact cells (in words): 1 μM substrate, 60 min
T1 construct: expressed in transfected cells
T1 sequence (P28845 whole entry): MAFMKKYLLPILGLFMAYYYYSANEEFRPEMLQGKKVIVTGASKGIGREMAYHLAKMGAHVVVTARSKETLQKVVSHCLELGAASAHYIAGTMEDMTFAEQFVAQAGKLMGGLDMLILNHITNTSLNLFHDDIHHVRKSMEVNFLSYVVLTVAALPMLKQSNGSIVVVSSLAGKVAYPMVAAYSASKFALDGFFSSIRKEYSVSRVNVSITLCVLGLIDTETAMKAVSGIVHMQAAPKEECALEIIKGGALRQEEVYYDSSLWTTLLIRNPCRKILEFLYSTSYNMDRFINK
Method: Fifty thousand stably transfected HEK-293 cells expressing either 11β-HSD2 [clone AT8 ([34])] or 11β-HSD1 and hexose-6-phosphate dehydrogenase (H6PDH) [clone HHH7 ([35])] were seeded in poly-L-lysine-coated 96-well plates and incubated for 24 h. H6PDH provides the cofactor NADPH and is required for an efficient oxoreduction reaction by 11β-HSD1 ([36]). The medium was changed to steroid- and phenol red-free DMEM (DMEM SF) for another 2 h and the cells were then treated with 1 μM of 7k27OHC in the presence or absence of 1 μM of T0504 (to inhibit 11β-HSD1) or 0.5 μM of 7β27OHC or 7α27OHC in the presence or absence of 5 μM of glycyrrhetinic acid (GA) (to inhibit 11β-HSD2). Metabolic conversion was determined after 0.5 h for 11β-HSD2 and after 1 h for 11β-HSD1.
Ice-cold acetonitrile:isopropanol (7:3, v/v) mixture containing either 100 nM deuterium-labeled 7β27OHC or corticosterone as internal standards were used to extract oxysterols from cell culture supernatants. Additionally, 1.5% (v/v) of a standard solution of the antioxidant butylated hydroxytoluene (BHT) and the peroxide reducing agent triphenylphosphine (TPP) (10 mg BHT and 25 mg TPP in 10 ml ethanol) was added ([37]). In experiments with SW-620 cells, oxysterols were extracted from cell supernatants and cells. The samples were incubated for 30 min at 4°C and 700 rotations per minute, centrifuged (16,000 g, 10 min, 4°C), and the supernatant evaporated to dryness under nitrogen to minimize oxidation from atmospheric oxygen. After reconstitution in 50 μl of methanol:ultra-pure water (1:1, v/v), the samples were again centrifuged (16,000 g, 10 min, 4°C) and the supernatants analyzed. Data (mean ± SD) were obtained from three independent experiments.
An Agilent 1290 Infinity UHPLC binary solvent delivery system including a temperature controlled autosampler and a column oven coupled to an Agilent 6490 triple quadrupole mass spectrometer with a jet stream electrospray ionization interface (AJS-ESI) (Agilent Technologies) was used to analyze oxysterols. A reversed-phase column (ACQUITY UPLC BEH C18, 1.7 μm, 2.1 × 150 mm; Waters, Wexford, Ireland) heated to 65 ± 0.8°C was applied for analyte separation. The flow-rate was 0.5 ml with solvent A [water/acetonitrile/formic acid (95/5/0.1, v/v/v)] and solvent B [water/acetonitrile/formic acid (5/95/0.1, v/v/v)]. The eluent gradient was set as follows: 0–4.5 min 45–97% B, 4.5–7 min 80% B (washout), and 7–9 min 45% B (column re-equilibration). Methanol/water (75/25, v/v) was used as needle and needle-seat flushing solvent for 10 s after sample aspiration. The samples were stored in the autosampler at 4°C until analysis. […]

11β-HSD2 = target: T2, 11β-HSD2 (Homo sapiens, UniProt P80365); assay: Inhibition of 11β-HSD2-dependent oxidation of cortisol in HEK-293 cell lysates; assay type: biochemical; conditions: for IC50: human enzyme, 50 nM cortisol, 10 min, 37°C, read-out: IC50, 11β-HSD2-dependent conversion of cortisol to cortisone
T2 construct: expressed in transfected cells
T2 sequence (P80365 1-405): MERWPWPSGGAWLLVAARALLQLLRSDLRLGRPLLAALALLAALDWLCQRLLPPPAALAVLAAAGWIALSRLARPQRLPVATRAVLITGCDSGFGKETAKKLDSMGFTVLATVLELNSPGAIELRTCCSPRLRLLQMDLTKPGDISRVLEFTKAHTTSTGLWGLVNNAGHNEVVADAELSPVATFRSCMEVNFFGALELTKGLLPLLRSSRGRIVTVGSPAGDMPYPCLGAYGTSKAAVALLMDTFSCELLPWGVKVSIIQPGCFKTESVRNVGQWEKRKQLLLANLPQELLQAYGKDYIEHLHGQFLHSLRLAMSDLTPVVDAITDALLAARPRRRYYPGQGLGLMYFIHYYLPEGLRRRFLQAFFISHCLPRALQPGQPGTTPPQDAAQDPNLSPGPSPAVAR
Method: (§1) 11β-HSD1 and 11β-HSD2 enzyme activities were assessed in lysates of HEK-293 cells stably expressing the respective enzyme as reported earlier ([40]). Briefly, 11β-HSD1-dependent oxoreductase activity was determined by the incubation of lysates with 200 nM of radiolabeled cortisone, 500 μM of NADPH, and the test substance or vehicle for 10 min at 37°C. 11β-HSD2-dependent oxidation of cortisol was measured instead by the addition of 50 nM of radiolabeled cortisol and 500 μM of NAD^+. The enzymatic reaction was stopped by introducing an excess amount of unlabeled cortisone and cortisol (1:1, 2 mM unlabeled each, in methanol). Cortisone and cortisol were separated using TLC and a chloroform and methanol (9:1, v/v) mixture. The bands were detected under UV light, scraped off the plate, and metabolism of the radiolabeled substrate was then evaluated by scintillation counting and the substrate conversion determined and compared with the control sample. Data (mean ± SD) were normalized to the control (DMSO) sample and obtained from at least three independent experiments.

human 11β-HSD1 [2] = target: T1, human 11β-HSD1; assay: Inhibition of 11β-HSD1-dependent oxoreduction of cortisone in HEK-293 cell lysates; assay type: biochemical; conditions: for IC50: human enzyme, 200 nM cortisone, read-out: IC50, 11β-HSD1-dependent conversion of cortisone to cortisol
Method: as §1

Which results are given for `C[C@@H](CO)CCC[C@@H](C)[C@H]1CC[C@H]2[C@@H]3[C@H](O)C=C4C[C@@H](O)CC[C@]4(C)[C@H]3CC[C@]12C` [7α27OHC]?
Metabolism by 11β-HSD1 in intact cells (in words) (human 11β-HSD1 [1]): neither 7α27OHC nor 7β27OHC was oxidized; Inhibition of human 11β-HSD2 (in words) (11β-HSD2; not shown): did not inhibit; Inhibition of human 11β-HSD1 enzyme activity (in words) (human 11β-HSD1 [2]; concentrations up to 10 μM, data not shown): did not inhibit the enzyme activity

Which results are given for `CC(CO)CCC[C@@H](C)[C@H]1CC[C@H]2[C@@H]3[C@@H](O)C=C4C[C@@H](O)CC[C@]4(C)[C@H]3CC[C@]12C` (stereo partly drawn) [7β27OHC, 7β,27-dihydroxycholesterol]?
Metabolism by 11β-HSD1 in intact cells (in words) (human 11β-HSD1 [1]): neither 7α27OHC nor 7β27OHC was oxidized; IC50 (11β-HSD2): 11 ± 2 nM; IC50 (human 11β-HSD1 [2]): ≥ 3000 nM

For `CC(CO)CCC[C@@H](C)[C@H]1CC[C@H]2[C@@H]3C(=O)C=C4C[C@@H](O)CC[C@]4(C)[C@H]3CC[C@]12C` (stereo partly shown) [7k27OHC, 7-keto,27-hydroxycholesterol], which “Metabolism by 11β-HSD1 in intact cells (in words)” value (human 11β-HSD1 [1]) is on record?
The value was “stereo-specifically converted to 7β27OHC”.

And the Vapp cell intact (human 11β-HSD1 [1]; intact HEK-293 cells, substrate concentration 1 μM)?
The Vapp cell intact was 0.52 ± 0.10 nmol·h^−1·mg total protein^−1 and 0.52 ± 0.10^a nmol·h^−1·mg total protein^−1.

And the IC50 (11β-HSD2)?
Its IC50 is 15 ± 1 nM.

What about the IC50 (human 11β-HSD1 [2]; 10 min, 37°C) of the same compound?
Its IC50 is 357 ± 38 nM.
